BindingDB's records for patent US20250313563 (The Broad Institute, 2025)
Values joined by “and” are separate entries in the source; they are usually repeats but may differ in a detail not shown here. Equal values may be shown once.

Legend:
[1] = molecular target: Glycogen synthase kinase-3 alpha (Homo sapiens, UniProt P49840); assay: TR-FRET Assay
In short: (§1)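 Kinase activity, measured after a 30-minute compound preincubation, was stopped with EDTA and quantified by TR-FRET using a Tb-labelled pSer641 antibody paired with streptavidin-d2.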

[2] = molecular target: Glycogen synthase kinase-3 beta (Homo sapiens, UniProt P49841); assay: TR-FRET Assay
Chain of Glycogen synthase kinase-3 beta (P49841 whole entry): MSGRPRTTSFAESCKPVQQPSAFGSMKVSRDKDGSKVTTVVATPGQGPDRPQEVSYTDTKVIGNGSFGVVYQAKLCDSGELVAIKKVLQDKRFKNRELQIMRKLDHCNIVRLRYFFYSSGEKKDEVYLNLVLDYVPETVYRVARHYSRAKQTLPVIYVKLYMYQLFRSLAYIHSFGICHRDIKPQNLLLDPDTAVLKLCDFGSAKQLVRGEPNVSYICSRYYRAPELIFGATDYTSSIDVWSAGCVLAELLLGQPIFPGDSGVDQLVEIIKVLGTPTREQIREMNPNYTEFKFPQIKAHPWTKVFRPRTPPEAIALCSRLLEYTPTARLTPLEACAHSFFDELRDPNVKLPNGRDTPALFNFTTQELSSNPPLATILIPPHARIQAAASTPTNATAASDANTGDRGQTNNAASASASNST
In short: as §1

Chain of Glycogen synthase kinase-3 alpha (P49840 whole entry): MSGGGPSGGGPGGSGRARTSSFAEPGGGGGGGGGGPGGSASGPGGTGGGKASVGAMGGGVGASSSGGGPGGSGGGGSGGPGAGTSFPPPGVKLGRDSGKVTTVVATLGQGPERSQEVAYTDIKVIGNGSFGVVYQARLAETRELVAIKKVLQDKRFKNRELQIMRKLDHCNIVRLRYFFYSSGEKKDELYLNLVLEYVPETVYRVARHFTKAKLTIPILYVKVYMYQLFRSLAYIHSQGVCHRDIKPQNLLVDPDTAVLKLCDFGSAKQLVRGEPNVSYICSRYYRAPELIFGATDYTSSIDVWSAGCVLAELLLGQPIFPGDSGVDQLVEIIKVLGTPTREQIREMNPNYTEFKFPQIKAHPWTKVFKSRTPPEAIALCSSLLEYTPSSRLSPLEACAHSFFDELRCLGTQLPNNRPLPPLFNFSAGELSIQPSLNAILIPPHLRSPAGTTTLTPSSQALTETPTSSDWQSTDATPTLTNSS

Structure (SMILES) | IC50 [1] | IC50 [2]
CC1(C)CC(=O)C2=C(C1)NC1=C(CN=N1)[C@]21CCN(S(C)(=O)=O)C1 [US20250313563, Compound 942432] | < 100 nM | < 100 nM
CC1(C)CC(=O)C2=C(C1)NC1=C(CN=N1)[C@@]21CCN(S(C)(=O)=O)C1 [US20250313563, Compound 942462] | < 100 nM | < 100 nM
CCC1(c2cccc(N(C)c3nccc(C)n3)c2)C2=CN=NC2NC2=C1C(=O)CC(C)(C)C2 (stereo not drawn) [US20250313563, Compound 942642] | < 100 nM | < 100 nM and 1000 to 5000 nM
CCC1(c2cccc(-c3cc(C)nn3C)c2)C2=C(N=NC2)NC2=C1C(=O)NC(C)(C)C2 (stereo not drawn) [US20250313563, Compound 943371] | < 100 nM | 1000 to 5000 nM
CC1(C)CC(=O)C2=C(C1)NC1=C(CN=N1)[C@]21CCN(S(=O)(=O)CC2CC2)C1 [US20250313563, Compound 943481] | < 100 nM and 100 to 1000 nM | < 100 nM and 100 to 1000 nM
CC1(C)CC(=O)C2=C(C1)NC1=C(CN=N1)[C@]21CCN(S(=O)(=O)C2CCCC2)C1 [US20250313563, Compound 943482] | < 100 nM and 100 to 1000 nM | < 100 nM and 100 to 1000 nM
Cn1cc(S(=O)(=O)N2CC[C@@]3(C2)C2=C(N=NC2)NC2=C3C(=O)CC(C)(C)C2)cn1 [US20250313563, Compound 943483] | < 100 nM | < 100 nM
Cn1ccc(S(=O)(=O)N2CC[C@@]3(C2)C2=C(N=NC2)NC2=C3C(=O)CC(C)(C)C2)n1 [US20250313563, Compound 943484] | < 100 nM and 100 to 1000 nM | < 100 nM and 1000 to 5000 nM
CC1(C)CC(=O)C2=C(C1)NC1=C(CN=N1)[C@]21CCN(S(=O)(=O)c2ccccc2)C1 [US20250313563, Compound 943485] | < 100 nM and 100 to 1000 nM | < 100 nM and 1000 to 5000 nM
COc1cccc(S(=O)(=O)N2CC[C@@]3(C2)C2=C(N=NC2)NC2=C3C(=O)CC(C)(C)C2)c1 [US20250313563, Compound 943486] | < 100 nM | < 100 nM
CC1(C)CC(=O)C2=C(C1)NC1=C(CN=N1)[C@]21CCN(S(=O)(=O)c2cccc(F)c2)C1 [US20250313563, Compound 943488] | < 100 nM | < 100 nM
Cc1cccc(S(=O)(=O)N2CC[C@@]3(C2)C2=C(N=NC2)NC2=C3C(=O)CC(C)(C)C2)c1 [US20250313563, Compound 943489] | < 100 nM | < 100 nM
CCC1(c2cccc(-c3cnnc(C)c3)c2)C2=CN=NC2NC2=C1C(=O)NC(C)(C)C2 (stereo not drawn) [US20250313563, Compound 943496] | < 100 nM | 1000 to 5000 nM
CC[C@]1(c2cccc(-c3cc(C)ncc3C)c2)C2=CN=NC2NC2=C1C(=O)CC(C)(C)C2 (stereo partly drawn) [US20250313563, Compound 943514] | < 100 nM | < 100 nM
CC[C@@]1(c2cccc(-c3cc(C)ncc3C)c2)C2=CN=NC2NC2=C1C(=O)CC(C)(C)C2 (stereo partly drawn) [US20250313563, Compound 943515] | 1000 to 5000 nM | > 5000 nM
CC[C@@]1(c2cccc(-c3ccncc3F)c2)C2=CN=NC2NC2=C1C(=O)CC(C)(C)C2 (stereo partly drawn) [US20250313563, Compound 943519] | 100 to 1000 nM | 1000 to 5000 nM
CCC1(c2cccc(-c3cnc(C)n3C)c2)C2=CN=NC2NC2=C1C(=O)CC(C)(C)C2 (stereo not drawn) [US20250313563, Compound 943531] | < 100 nM and 100 to 1000 nM | 100 to 1000 nM and > 5000 nM
CCC1(c2cccc(-c3ncnn3C)c2)C2=CN=NC2NC2=C1C(=O)CC(C)(C)C2 (stereo not drawn) [US20250313563, Compound 943532] | < 100 nM | 100 to 1000 nM
CCC1(c2cccc(-c3cncn3C)c2)C2=CN=NC2NC2=C1C(=O)CC(C)(C)C2 (stereo not drawn) [US20250313563, Compound 943533] | < 100 nM | < 100 nM
CCC1(c2cccc(-c3ccnc4c3CCC4)c2)C2=CN=NC2NC2=C1C(=O)CC(C)(C)C2 (stereo not drawn) [US20250313563, Compound 943534] | < 100 nM | < 100 nM

Structure (SMILES) | IC50 [1] | IC50 [2]
CCC1(c2cccc(-c3cnc4n3CCCC4)c2)C2=CN=NC2NC2=C1C(=O)CC(C)(C)C2 (stereo not drawn) [US20250313563, Compound 943535] | < 100 nM | < 100 nM
CCC1(c2cccc(-c3ccnc(C(C)(C)O)c3)c2)C2=CN=NC2NC2=C1C(=O)CC(C)(C)C2 (stereo not drawn) [US20250313563, Compound 943536] | < 100 nM | 1000 to 5000 nM
CCC1(c2cccc(N(C)c3cc(C)ccn3)c2)C2=CN=NC2NC2=C1C(=O)CC(C)(C)C2 (stereo not drawn) [US20250313563, Compound 943537] | < 100 nM | 100 to 1000 nM
CCC1(c2cccc(N(C)c3cc(C)cc(C)n3)c2)C2=CN=NC2NC2=C1C(=O)CC(C)(C)C2 (stereo not drawn) [US20250313563, Compound 943538] | < 100 nM | 100 to 1000 nM
CCC1(c2cccc(-c3ccncc3CO)c2)C2=CN=NC2NC2=C1C(=O)CC(C)(C)C2 (stereo not drawn) [US20250313563, Compound 943539] | < 100 nM | < 100 nM
CCC1(c2cccc(-c3ccnc(CO)c3)c2)C2=CN=NC2NC2=C1C(=O)CC(C)(C)C2 (stereo not drawn) [US20250313563, Compound 943540] | < 100 nM | 100 to 1000 nM
CC[C@@]1(c2cccc(S(=O)(=O)C3CCCCC3)c2)C2=CN=NC2NC2=C1C(=O)CC(C)(C)C2 (stereo partly drawn) [US20250313563, Compound 943541] | 100 to 1000 nM | 1000 to 5000 nM
CC[C@]1(c2cccc(S(=O)(=O)CCOC)c2)C2=CN=NC2NC2=C1C(=O)CC(C)(C)C2 (stereo partly drawn) [US20250313563, Compound 943542] | < 100 nM and 100 to 1000 nM | < 100 nM and 1000 to 5000 nM
CC1(C)CC(=O)C2=C(C1)NC1=C(CN=N1)C21CN(S(=O)(=O)Cc2ccccc2)C1 [US20250313563, Compound 943543] | < 100 nM | < 100 nM
COCCN1CC2(C1)C1=C(N=NC1)NC1=C2C(=O)CC(C)(C)C1 [US20250313563, Compound 943544] | > 5000 nM | > 5000 nM
CC1(C)CC(=O)C2=C(C1)NC1=C(CN=N1)C21CN(CC2CCOCC2)C1 [US20250313563, Compound 943545] | > 5000 nM | > 5000 nM
CC[C@@]1(c2cccc(S(=O)(=O)CCOC)c2)C2=CN=NC2NC2=C1C(=O)CC(C)(C)C2 (stereo partly drawn) [US20250313563, Compound 943546] | 1000 to 5000 nM | > 5000 nM
CC1(C)CC(=O)C2=C(C1)NC1=C(CN=N1)C21CCC(n2cnnc2)CC1 (stereo not drawn) [US20250313563, Compound 943894] | < 100 nM | 100 to 1000 nM
Cc1noc(C2CCC3(CC2)C2=C(N=NC2)NC2=C3C(=O)CC(C)(C)C2)n1 (stereo not drawn) [US20250313563, Compound 943895] | 100 to 1000 nM | 100 to 1000 nM
C[C@H]1C[C@@H]2C[C@@]3(C[C@@H]2C1)C1=CN=NC1NC1=C3C(=O)CC(C)(C)C1 (stereo partly drawn) [US20250313563, Compound 943896] | < 100 nM | < 100 nM
C[C@@H]1C[C@@H]2C[C@@]3(C[C@@H]2C1)C1=CN=NC1NC1=C3C(=O)CC(C)(C)C1 (stereo partly drawn) [US20250313563, Compound 943898] | < 100 nM | < 100 nM
CCC1(c2cccc(-c3cnn(C)c3)c2)C2=CN=NC2NC2=C1C(=O)NC(C)(C)C2 (stereo not drawn) [US20250313563, Compound 943912] | < 100 nM | 1000 to 5000 nM
CC1(C)CC(=O)C2=C(C1)NC1=C(CN=N1)C21CN(CC2CCCC2)C1 [US20250313563, Compound 943914] | > 5000 nM | > 5000 nM
CC[C@]1(c2cccc(-c3ccnc(C(F)F)c3)c2)C2=CN=NC2NC2=C1C(=O)CC(C)(C)C2 (stereo partly drawn) [US20250313563, Compound 943915] | > 5000 nM | > 5000 nM
